Results on 14 compounds are retold here after US10710984B2, “N-[(Pyrimidinylamino)propanyl]-and N-[(Pyridinylamino)-propanyl]arylcarboxamides” (Boehringer Ingelheim International GmbH, priority 2016, dated 2020).

Data set [1] is described as follows: Assay D: assessment of log P. Format: physicochemical. The procedure:
The assay was performed following the description by S. F. Donovan and M. C. Pescatore in J. Chromatogr. A 952 (2002) 47-61.

The target of data set [2] is T1, human orexin 2 receptor (Homo sapiens, UniProt O43614).
T1 construct: CHO-K1 cells stably expressing the full-length human orexin 2 receptor and the aequorin photoprotein; expressed in transfected cells; host or cells: CHO-K1 (CHO-K1/hOx2)
T1 sequence (O43614 1-444): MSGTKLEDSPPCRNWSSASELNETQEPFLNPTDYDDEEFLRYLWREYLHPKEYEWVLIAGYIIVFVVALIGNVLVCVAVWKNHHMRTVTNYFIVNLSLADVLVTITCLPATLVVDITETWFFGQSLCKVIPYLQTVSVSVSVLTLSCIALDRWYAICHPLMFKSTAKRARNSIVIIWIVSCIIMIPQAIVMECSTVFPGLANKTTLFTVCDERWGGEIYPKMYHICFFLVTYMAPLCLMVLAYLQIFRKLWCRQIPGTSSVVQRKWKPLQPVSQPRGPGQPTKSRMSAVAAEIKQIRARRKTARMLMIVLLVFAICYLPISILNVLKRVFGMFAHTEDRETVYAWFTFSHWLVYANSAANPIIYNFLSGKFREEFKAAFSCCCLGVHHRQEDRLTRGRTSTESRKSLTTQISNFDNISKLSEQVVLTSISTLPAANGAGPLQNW
The experiment in a line: Assay B: in vitro testing of OX2R potency, OX2R IP1. Conditions: Table 4a; 0.5 nM Orexin A. Format: cell-based. An excerpt:
Activation of the orexin receptors expressed in cell lines results in an increase in intracellular IP3 concentration. IP1, a downstream metabolite of IP3, accumulates in cells following receptor activation and is stable in the presence of LiCl. Using Homogeneous Time-Resolved Fluorescence technology with Lumi4-Tb cryptate (commercially available from Cisbio Bioassay) and a suitable fluorescence plate reader. […] Chem. Genomics 2009, 3, 22-32. This technique is used to characterize pharmacological modification of the orexin receptors.
B. In Vitro Testing of OX2R Potency: OX2R IP1
IP1 measurements are performed in CHO-K1 cells stably expressing the full-length human orexin 2 receptor and the aequorin photoprotein. Cells are cultivated in Ham's nutrient mixture F12 medium with 10% fetal calf serum, in a 37° C., 95% humidity and 5% CO2 incubator. The CHO-K1/hOx2 cell mass is expanded to larger cell numbers. The cells are obtained as frozen cells in cryo-vials and stored until use at −150° C. The viability of the cells after thawing is >90%. In preparation for the assay, 24 hours before the assay, the cells are thawed at 37° C. and immediately diluted with cell culture medium. After centrifugation, the cell pellet is re-suspended in medium and then distributed into the assay plates with a density of 5000 cells/25 μL per well. The plates are incubated for one hour at room temperature to reduce edge effects before they are incubated for 24 hours at 37° C./5% CO2. Compounds are prepared by a 8-point serial dilution in DMSO and a final dilution step into assay buffer (HBSS with 20 mM HEPES, 0.1% BSA and 50 mM LiCl, pH 7.4) to ensure a final DMSO concentration of 1% in the assay. On the day of the assay, cells in the plate are washed twice with 60 μL assay buffer (20 μL buffer remained in the wells after washing), followed by adding 5 μL per well of compounds diluted in assay buffer. After 15 minutes of incubation at room temperature 5 μL per well of Orexin A peptide (final concentration: 0.5 nM) dissolved in assay buffer is added to the assay plate. The assay plate is incubated for 60 minutes at 37° C. Then 5 μL per well of Anti-IP1-Cryptate Tb solution and 5 μL per well of IP1-d2 dilution are added to all well of the plate and the plate is incubated for a further 60 minutes light protected at room temperature. The emission at 615 nm and 665 nm (Excitation wavelength: 320 nm) are measured using an EnVision reader (PerkinElmer). The ratio between the emission at 665 nm and 615 is calculated by the reader.
8-point four parametric non-linear curve fitting and determination of IC50 values and Hill slopes is performed using a regular analysis software e.g. AssayExplorer (Accelrys). In order to establish an agonist concentration independent parameter, Kb values are calculated using the following equation: IC50/((2+(A/EC50)^n)^1/n−1) (with A=concentration agonist, EC50=EC50 agonist, n=Hill slope agonist) (see P. Leff, I. G. Dougall, Trends Pharmacol. Sci. 1993, 14(4), 110-112).
Kb values from Assay A (OX1R) and Assay B (OX2R) can then provide a selectivity ratio which is independent of the agonist (Orexin A) concentration.

Data set [3] has as its target T2, human MDR1 P-gp (Homo sapiens, UniProt P08183).
T2 construct: expressed in transfected cells; host or cells: MDCK (MDCK-MDR1)
Description: Assay C: efflux in MDCK cells transfected with the human MDR1 gene. The settings on record: MDCK-MDR1 cell monolayers, pH 7.4, 37° C., read-out: MDCK efflux ratio (BA/AB). Format: in vitro ADME. Here is the method: C. Assessment of Efflux in Madin-Darby Canine Kidney (MDCK) Cells Transfected with the Human MDR1 Gene
Apparent permeability coefficients (PE) of the compounds across the MDCK-MDR1 cell monolayers are measured (pH 7.4, 37° C.) in apical-to-basal (AB) and basal-to-apical (BA) transport direction. AB permeability (PEAB) represents drug absorption from the blood into the brain and BA permeability (PEBA) drug efflux from the brain back into the blood via both passive permeability as well as active transport mechanisms mediated by efflux and uptake transporters that are expressed on the MDCK-MDR1 cells, predominantly by the overexpressed human MDR1 P-gp. The compounds are assigned to permeability/absorption classes by comparison of the AB permeabilities with the AB permeabilities of reference compounds with known in vitro permeability and oral absorption in the human. Identical or similar permeabilities in both transport directions indicate passive permeation, vectorial permeability points to additional active transport mechanisms. Higher PEBA than PEAB indicates the involvement of active efflux mediated by MDR1 P-gp. Active transport is concentration-dependently saturable.
MDCK-MDR1 cells (1-2×10e5 cells/1 cm2 area) are seeded on filter inserts (Costar transwell polycarbonate or PET filters, 0.4 μm pore size) and cultured (DMEM) for 7 days. Subsequently, the MDR1 expression is boosted by culturing the cells with 5 mM sodium butyrate in full medium for 2 days. Compounds are dissolved in appropriate solvent (like DMSO, 1-20 mM stock solutions). Stock solutions are diluted with HTP-4 buffer (128.13 mM NaCl, 5.36 mM KCl, 1 mM MgSO4, 1.8 mM CaCl2, 4.17 mM NaHCO3, 1.19 mM Na2HPO4×7H2O, 0.41 mM NaH2PO4—H2O, 15 mM HEPES, 20 mM glucose, 0.25% BSA, pH 7.4) to prepare the transport solutions (0.1-300 μM compound, final DMSO<=0.5%). The transport solution (TL) is applied to the apical or basolateral donor side for measuring A-B or B-A permeability (3 filter replicates), respectively. The receiver side contains the same buffer as the donor side. Samples are collected at the start and end of experiment from the donor and at various time intervals for up to 2 hours also from the receiver side for concentration measurement by H PLC-MS/MS or scintillation counting. Sampled receiver volumes are replaced with fresh receiver solution.

In data set [4] the target is T3, human Orexin 1 receptor (Homo sapiens, UniProt O43613).
T3 construct: CHO-K1 cells stably expressing the full-length human Orexin 1 receptor and the aequorin photoprotein; expressed in transfected cells; host or cells: CHO-K1 (CHO-K1/hOx1)
T3 sequence (O43613 1-425): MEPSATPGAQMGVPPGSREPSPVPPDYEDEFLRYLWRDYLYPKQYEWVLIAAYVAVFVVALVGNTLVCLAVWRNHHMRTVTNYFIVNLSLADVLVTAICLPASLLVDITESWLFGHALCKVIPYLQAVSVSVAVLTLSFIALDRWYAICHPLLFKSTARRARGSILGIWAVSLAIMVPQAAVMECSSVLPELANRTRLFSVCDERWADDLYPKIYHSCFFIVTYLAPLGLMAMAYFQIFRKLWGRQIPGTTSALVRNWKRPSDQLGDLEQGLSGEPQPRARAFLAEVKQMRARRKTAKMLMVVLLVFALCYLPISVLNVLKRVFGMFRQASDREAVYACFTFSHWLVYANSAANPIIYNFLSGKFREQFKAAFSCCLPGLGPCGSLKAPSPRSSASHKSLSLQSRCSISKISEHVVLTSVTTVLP
The experiment in a line: Assay A: in vitro testing of OX1R potency, OX1R IP1. The format is cell-based. Conditions: for Kb: Table 4a, 50 nM Orexin A.

Data set [5] concerns the target T4, OX2R (Homo sapiens, UniProt O43614).
T4 sequence (O43614 1-444): T1 sequence (O43614 1-444)
The experiment in a line: OX2R assay of WO2016/034882, Table 3 (Method B). The settings on record: read-out: OX2R IC50 (corresponds to pIC50) (converted).

The target of data set [6] is T5, OX1R (Homo sapiens, UniProt O43613).
T5 sequence (O43613 1-425): T3 sequence (O43613 1-425)
The experiment in a line: OX1R assay of WO2016/034882, Table 3 (Method B). Conditions: read-out: OX1R IC50 (corresponds to pIC50) (converted).

One may read the chromatographic logP as lipophilicity estimated from chromatographic retention. Higher therefore signals higher lipophilicity. The term IC50 denotes the midpoint of a concentration-inhibition curve.

T2 sequence (P08183 whole entry): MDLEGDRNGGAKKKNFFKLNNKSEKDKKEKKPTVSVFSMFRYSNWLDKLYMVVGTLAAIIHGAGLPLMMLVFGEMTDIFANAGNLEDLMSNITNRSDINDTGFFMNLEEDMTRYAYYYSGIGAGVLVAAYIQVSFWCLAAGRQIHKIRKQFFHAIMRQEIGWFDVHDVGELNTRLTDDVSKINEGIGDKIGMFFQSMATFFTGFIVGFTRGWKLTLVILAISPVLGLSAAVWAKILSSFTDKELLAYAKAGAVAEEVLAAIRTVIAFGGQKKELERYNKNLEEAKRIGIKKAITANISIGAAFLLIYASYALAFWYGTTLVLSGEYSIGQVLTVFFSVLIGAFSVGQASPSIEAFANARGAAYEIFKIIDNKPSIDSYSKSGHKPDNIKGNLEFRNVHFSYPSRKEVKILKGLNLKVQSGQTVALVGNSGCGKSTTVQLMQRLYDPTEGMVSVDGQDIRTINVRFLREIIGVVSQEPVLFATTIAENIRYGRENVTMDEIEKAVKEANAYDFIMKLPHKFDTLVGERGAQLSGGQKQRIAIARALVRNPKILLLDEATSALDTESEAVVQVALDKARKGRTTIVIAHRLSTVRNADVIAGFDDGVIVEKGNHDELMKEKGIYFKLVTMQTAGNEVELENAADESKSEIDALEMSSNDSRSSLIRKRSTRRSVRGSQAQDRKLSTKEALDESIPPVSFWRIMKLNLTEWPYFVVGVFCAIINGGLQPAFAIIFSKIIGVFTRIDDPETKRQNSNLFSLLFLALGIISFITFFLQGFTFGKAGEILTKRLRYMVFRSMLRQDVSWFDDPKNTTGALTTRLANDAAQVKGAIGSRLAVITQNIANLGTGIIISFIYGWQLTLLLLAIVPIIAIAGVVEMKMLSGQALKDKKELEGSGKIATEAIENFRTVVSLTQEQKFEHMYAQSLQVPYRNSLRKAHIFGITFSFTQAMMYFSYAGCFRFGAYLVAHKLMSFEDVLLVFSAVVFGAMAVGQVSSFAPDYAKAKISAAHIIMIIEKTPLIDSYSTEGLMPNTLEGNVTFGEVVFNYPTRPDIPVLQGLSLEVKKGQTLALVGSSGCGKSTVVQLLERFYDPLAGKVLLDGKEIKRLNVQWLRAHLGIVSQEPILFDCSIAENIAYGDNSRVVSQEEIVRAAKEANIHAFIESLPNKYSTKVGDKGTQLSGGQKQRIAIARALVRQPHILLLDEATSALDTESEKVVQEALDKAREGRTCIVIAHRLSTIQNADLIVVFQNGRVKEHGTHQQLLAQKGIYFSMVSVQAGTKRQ

With `CCN(C(=O)c1cc(C)ccc1-n1nccn1)[C@@H](C)CNc1ncc(C(F)(F)F)cn1` [Example 2], in data set [1], the chromatographic logP lay in the range of 2 to 4. Also, the Kb was determined as 4.14 nM in data set [2] and 0.011 nM in data set [4]. Besides, the efflux ratio in data set [3] was under 3.

In turn, `CCN(C(=O)c1cc(C)ccc1-n1nccn1)[C@@H](C)CN(C)c1ncc(C(F)(F)F)cn1` [Example 3] had a chromatographic logP in data set [1] of 2 to 4. This compound registered a Kb in data set [2] of 15.2 nM. The efflux ratio in data set [3] is under 3. In data set [4], the “OX2R Kb/OX1R Kb” value came out at 755 and the Kb was 0.02 nM.

In data set [1], `CCN(C(=O)c1cc(OC)ccc1-n1nccn1)[C@@H](C)CNc1ncc(C(F)(F)F)cn1` [Example 4] registered a chromatographic logP of 2 to 4. Besides, the Kb amounted to 14.4 nM in data set [2] and 0.02 nM in data set [4]. In data set [3], the efflux ratio was under 3.

Turning to `CCN(C(=O)c1nc(C)sc1-c1ccccc1)[C@@H](C)CNc1ncc(C(F)(F)F)cn1` [Example 6], the chromatographic logP in data set [1] lay in the range of 2 to 4. The figures for the Kb in data set [2] and in data set [4] were 7.03 nM and 0.013 nM, respectively. The efflux ratio in data set [3] is under 3.

With `CCN(C(=O)c1ccc(Cl)cc1-n1nccn1)[C@@H](C)CNc1ncc(C(F)(F)F)cn1` [Example 7], the chromatographic logP in data set [1] lay within 2 to 4. The Kb worked out at 23.2 nM in data set [2] and 0.025 nM in data set [4]. Also, the efflux ratio in data set [3] was under 3.

In turn, `CCN(C(=O)c1nc(C)sc1-c1ccc(F)cc1)[C@@H](C)CNc1ncc(C(F)(F)F)cn1` [Example 8] displayed a chromatographic logP in data set [1] of 2 to 4. In addition, the Kb in data set [2] was determined as 7.92 nM; in data set [4] it was 0.022 nM. Moreover, the efflux ratio in data set [3] was under 3.

Turning to `CCN(C(=O)c1ccc(C)c(C)c1-n1nccn1)[C@@H](C)CNc1ccc(Cl)cn1` [Example 14], the Kb is 22.9 nM in data set [2] and 0.023 nM in data set [4]. In data set [3], the efflux ratio was under 3.

Consider `CCN(C(=O)c1cccc(F)c1-n1nccn1)[C@@H](C)CNc1ccc(C(F)(F)F)cn1` [Example 15], for which, in data set [1], the chromatographic logP was in the range of 2 to 4. Moreover, the Kb worked out at 3.86 nM in data set [2] and 0.0044 nM in data set [4]. The efflux ratio in data set [3] is under 3.

In data set [1], `CCN(C(=O)c1cccc(F)c1-n1nccn1)[C@@H](C)CNc1ncc(C(F)(F)F)cc1F` [Example 16] showed a chromatographic logP of 2 to 4. Also, the Kb is 7.6 nM in data set [2] and 0.014 nM in data set [4]. Further, the efflux ratio in data set [3] was under 3.

In data set [1], `CCN(C(=O)c1nccc(C(F)(F)F)c1-c1ccn(C)n1)[C@@H](C)COc1ccc(C(F)(F)F)cn1` [Example 19] came in with a chromatographic logP of 2 to 4. The figures for the Kb in data set [2] and in data set [4] were 26.2 nM and 0.114 nM, respectively. Also, the efflux ratio in data set [3] was under 3.

`CCN(C(=O)c1ccc(OC)cc1-n1nccn1)[C@@H](C)CNc1ncc(C(F)(F)F)cn1` [Example 20] registered a chromatographic logP in data set [1] of 2 to 4. Besides, the Kb in data set [2] was determined as 115 nM; in data set [4], 0.091 nM. Moreover, the efflux ratio in data set [3] is under 3.

Turning to `CC[C@@H](CNc1ccc(C(F)(F)F)cn1)N(CC)C(=O)c1nc(C)ccc1-n1nccn1` [drawing 9], in data set [5], the half-maximal inhibitory concentration (IC50) is 320 nM.

On to `CC[C@@H](CNc1ncc(C(F)(F)F)cn1)N(C)C(=O)c1nc(C)ccc1-c1ncccn1` [drawing 11], for which the IC50 in data set [6] was 1.9 nM.

On to `CC[C@@H](CNc1ncc(C(F)(F)F)cn1)N(C)C(=O)c1c(F)cccc1-n1nccn1` [drawing 12], for which the IC50 in data set [5] was at least 7950 nM.
